# Data published in PubChem BioAssay AID256 (DTP/NCI, 2004).
# “And” between values parts separate entries of the source, which are not always exact repeats. Equal values may be shown once. Inconclusive results and toxic doses are left out.
# System: CD2F1 mice, L1210 leukemia ip, survival T/C
# Assay: NCI In Vivo Anticancer Drug Screen. Data for tumor model L1210 Leukemia (intraperitoneal) in CD2F1 (CDF1) mice
# Details: higher = longer survival
# Procedure, shortened: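 Compound-dosed mice with transplantable tumor versus matched vehicle controls; endpoint ratio T/C reported.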
# [1] = endpoint: median survival time, dose: 20.0 mg/kg/injection, schedule: Q04DX003 (ip), vehicle: saline
# [2] = endpoint: median survival time, dose: 40.0 mg/kg/injection, schedule: Q04DX003 (ip), vehicle: saline
# [3] = endpoint: median survival time, dose: 80.0 mg/kg/injection, schedule: Q04DX003 (ip), vehicle: saline
# [4] = endpoint: mean survival time, dose: 100.0 mg/kg/injection, schedule: Q04DX003 (ip), vehicle: Klucel (hydroxypropylcellulose) (HPC)
# [5] = endpoint: mean survival time, dose: 100.0 mg/kg/injection, schedule: Q04DX003 (ip), vehicle: saline with Tween-80
# [6] = endpoint: mean survival time, dose: 200.0 mg/kg/injection, schedule: Q04DX003 (ip), vehicle: saline with Tween-80
# [7] = endpoint: mean survival time, dose: 400.0 mg/kg/injection, schedule: Q04DX003 (ip), vehicle: saline with Tween-80
# [8] = endpoint: mean survival time, dose: 100.0 mg/kg/injection, schedule: Q01DX001 (ip), vehicle: saline with Tween-80
# [9] = endpoint: mean survival time, dose: 200.0 mg/kg/injection, schedule: Q01DX001 (ip), vehicle: saline with Tween-80
# [10] = endpoint: mean survival time, dose: 400.0 mg/kg/injection, schedule: Q01DX001 (ip), vehicle: saline with Tween-80
# [11] = endpoint: mean survival time, dose: 100.0 mg/kg/injection, schedule: Q01DX009 (ip), vehicle: saline with Tween-80
# [12] = endpoint: mean survival time, dose: 200.0 mg/kg/injection, schedule: Q01DX009 (ip), vehicle: saline with Tween-80
smiles,measurement,setting,value
CC1(C)N=C(N)N=C(N)N1c1cccc(CCCCc2ccc(Cl)c(S(=O)(=O)F)c2)c1,T/C,"endpoint: mean survival time, dose: 1.8 mg/kg/injection, schedule: Q01DX009 (ip), vehicle: saline",98 % of control
same,T/C,"endpoint: mean survival time, dose: 3.5 mg/kg/injection, schedule: Q01DX009 (ip), vehicle: saline",93 % of control
same,T/C,"endpoint: mean survival time, dose: 7.0 mg/kg/injection, schedule: Q01DX009 (ip), vehicle: saline",91 % of control
same,T/C,"endpoint: mean survival time, dose: 14.0 mg/kg/injection, schedule: Q01DX009 (ip), vehicle: saline",89 % of control
same,T/C,"endpoint: mean survival time, dose: 28.0 mg/kg/injection, schedule: Q01DX009 (ip), vehicle: saline",104 % of control
same,T/C,"endpoint: mean survival time, dose: 200.0 mg/kg/injection, schedule: Q04DX003 (ip), vehicle: saline sonified",86 % of control
O=C(Nc1ccc(Oc2ccccc2)cc1)c1ccc(C(=O)Nc2ccc(Oc3ccccc3)cc2)cc1,T/C,"endpoint: mean survival time, dose: 100.0 mg/kg/injection, schedule: Q01DX001 (ip), vehicle: saline",92 % of control
same,T/C,"endpoint: mean survival time, dose: 200.0 mg/kg/injection, schedule: Q01DX001 (ip), vehicle: saline",92 % of control
same,T/C,"endpoint: mean survival time, dose: 400.0 mg/kg/injection, schedule: Q01DX001 (ip), vehicle: saline",95 % of control
C=CCc1cc(CNCC(O)c2ccccc2)c(O)c(OC)c1 (stereo not given),T/C,"endpoint: mean survival time, dose: 25.0 mg/kg/injection, schedule: Q01DX009 (ip), vehicle: Klucel (hydroxypropylcellulose) (HPC)",89 % of control
same,T/C,"endpoint: mean survival time, dose: 50.0 mg/kg/injection, schedule: Q01DX009 (ip), vehicle: Klucel (hydroxypropylcellulose) (HPC)",112 % of control
O=C(O)CO.[NH2-].[NH2-].[Pt+2],T/C,[1],192 % of control and 238 % of control
same,T/C,[2],182 % of control and 340 % of control
same,T/C,[3],98 % of control and 102 % of control
O=S(=O)(/C(=C\c1ccccc1)c1ccccc1)c1ccccc1,T/C,"endpoint: mean survival time, dose: 100.0 mg/kg/injection, schedule: Q04DX003 (ip), vehicle: saline",90 % of control
same,T/C,"endpoint: mean survival time, dose: 200.0 mg/kg/injection, schedule: Q01DX009 (ip), vehicle: saline",90 % of control
same,T/C,"endpoint: mean survival time, dose: 200.0 mg/kg/injection, schedule: Q04DX003 (ip), vehicle: saline",92 % of control
same,T/C,"endpoint: mean survival time, dose: 400.0 mg/kg/injection, schedule: Q01DX009 (ip), vehicle: saline",88 % of control
same,T/C,"endpoint: mean survival time, dose: 400.0 mg/kg/injection, schedule: Q04DX003 (ip), vehicle: saline",90 % of control
CCS(=O)(=O)c1c(C(N)=O)ncn1C1OC(CO)C(O)C1O (stereo not given),T/C,"endpoint: median survival time, dose: 9.13 mg/kg/injection, schedule: Q01DX005 (ip), vehicle: saline",91 % of control
same,T/C,"endpoint: median survival time, dose: 18.25 mg/kg/injection, schedule: Q01DX005 (ip), vehicle: saline",102 % of control
same,T/C,"endpoint: median survival time, dose: 36.5 mg/kg/injection, schedule: Q01DX005 (ip), vehicle: saline",102 % of control
same,T/C,"endpoint: median survival time, dose: 73.0 mg/kg/injection, schedule: Q01DX005 (ip), vehicle: saline",102 % of control
same,T/C,"endpoint: median survival time, dose: 146.0 mg/kg/injection, schedule: Q01DX005 (ip), vehicle: saline",100 % of control
O/N=C1/CCCC/C1=C/c1ccc(Cl)cc1,T/C,[4],98 % of control
same,T/C,"endpoint: mean survival time, dose: 200.0 mg/kg/injection, schedule: Q04DX003 (ip), vehicle: Klucel (hydroxypropylcellulose) (HPC)",100 % of control
same,T/C,"endpoint: mean survival time, dose: 400.0 mg/kg/injection, schedule: Q04DX003 (ip), vehicle: Klucel (hydroxypropylcellulose) (HPC)",100 % of control
CCCCCCC(O)CCCCCCCCCCC(=O)O (stereo not given),T/C,[5],98 % of control
same,T/C,[6],92 % of control
same,T/C,[7],90 % of control
CCOC(=O)C(CCC(=O)OC)(CCC(=O)OC)C(=O)OCC,T/C,"endpoint: mean survival time, dose: 100.0 mg/kg/injection, schedule: Q01DX005 (ip), vehicle: other",95 % of control
same,T/C,"endpoint: mean survival time, dose: 100.0 mg/kg/injection, schedule: Q01DX009 (ip), vehicle: other",101 % of control
same,T/C,"endpoint: mean survival time, dose: 100.0 mg/kg/injection, schedule: Q04DX002 (ip), vehicle: other",88 % of control
same,T/C,"endpoint: mean survival time, dose: 200.0 mg/kg/injection, schedule: Q01DX005 (ip), vehicle: other",91 % of control
same,T/C,"endpoint: mean survival time, dose: 200.0 mg/kg/injection, schedule: Q01DX009 (ip), vehicle: other",97 % of control
same,T/C,"endpoint: mean survival time, dose: 200.0 mg/kg/injection, schedule: Q04DX002 (ip), vehicle: other",92 % of control
same,T/C,"endpoint: mean survival time, dose: 400.0 mg/kg/injection, schedule: Q01DX005 (ip), vehicle: other",91 % of control
same,T/C,"endpoint: mean survival time, dose: 400.0 mg/kg/injection, schedule: Q01DX009 (ip), vehicle: other",86 % of control
same,T/C,"endpoint: mean survival time, dose: 400.0 mg/kg/injection, schedule: Q04DX002 (ip), vehicle: other",95 % of control
COC(=C\c1ccccc1)/C(=N/Nc1ccc([N+](=O)[O-])cc1[N+](=O)[O-])c1ccccc1,T/C,[8],101 % of control
same,T/C,[9],109 % of control
same,T/C,[10],109 % of control
CC1=CC(O)(c2ccccc2)C(C)=CC1=O (stereo not given),T/C,[8],97 % of control
same,T/C,[9],97 % of control
same,T/C,[10],93 % of control
O=P(O)(O)OC1OC(n2cnc3c(NCc4ccc(F)cc4)ncnc32)C(O)C1O (stereo not given),T/C,"endpoint: median survival time, dose: 12.5 mg/kg/injection, schedule: Q01DX005 (ip), vehicle: saline",101 % of control
same,T/C,"endpoint: median survival time, dose: 25.0 mg/kg/injection, schedule: Q01DX005 (ip), vehicle: saline",101 % of control
same,T/C,"endpoint: median survival time, dose: 50.0 mg/kg/injection, schedule: Q01DX005 (ip), vehicle: saline",92 % of control
same,T/C,"endpoint: median survival time, dose: 100.0 mg/kg/injection, schedule: Q01DX005 (ip), vehicle: saline",92 % of control
same,T/C,"endpoint: median survival time, dose: 200.0 mg/kg/injection, schedule: Q01DX005 (ip), vehicle: saline",100 % of control
CCc1ccc(O[Si](C)(C)C)cc1,T/C,[5],97 % of control
same,T/C,[6],99 % of control
CC(=O)OCC(OC(C)=O)C1OC(OCc2ccccc2)C(OC(C)=O)C(OC(C)=O)C1OC(C)=O (stereo not given),T/C,[8],95 % of control
same,T/C,[9],86 % of control
same,T/C,[10],88 % of control
C1CCC(C2CCCC[N-]2)[N-]C1.[Cl][Pt].[NH-]CC(=O)O (stereo not given),T/C,"endpoint: median survival time, dose: 10.0 mg/kg/injection, schedule: Q04DX003 (ip), vehicle: saline",101 % of control
same,T/C,[1],105 % of control
same,T/C,[2],98 % of control
same,T/C,[3],95 % of control and 96 % of control
same,T/C,"endpoint: median survival time, dose: 160.0 mg/kg/injection, schedule: Q04DX003 (ip), vehicle: saline",90 % of control
same,T/C,"endpoint: median survival time, dose: 320.0 mg/kg/injection, schedule: Q04DX003 (ip), vehicle: saline",101 % of control
O=[N+]([O-])c1cccc(N=C(Nc2cccc([N+](=O)[O-])c2)c2ccccc2)c1,T/C,[5],113 % of control
same,T/C,[6],107 % of control
same,T/C,[7],103 % of control
Clc1[nH]nc2ccccc12,T/C,"endpoint: mean survival time, dose: 12.5 mg/kg/injection, schedule: Q01DX009 (ip), vehicle: saline with Tween-80",102 % of control
same,T/C,"endpoint: mean survival time, dose: 12.5 mg/kg/injection, schedule: Q04DX003 (ip), vehicle: saline with Tween-80",98 % of control
same,T/C,"endpoint: mean survival time, dose: 25.0 mg/kg/injection, schedule: Q01DX001 (ip), vehicle: saline with Tween-80",90 % of control
same,T/C,"endpoint: mean survival time, dose: 25.0 mg/kg/injection, schedule: Q01DX009 (ip), vehicle: saline with Tween-80",105 % of control
same,T/C,"endpoint: mean survival time, dose: 25.0 mg/kg/injection, schedule: Q04DX003 (ip), vehicle: saline with Tween-80",93 % of control and 97 % of control
same,T/C,"endpoint: mean survival time, dose: 50.0 mg/kg/injection, schedule: Q01DX001 (ip), vehicle: saline with Tween-80",98 % of control
same,T/C,"endpoint: mean survival time, dose: 50.0 mg/kg/injection, schedule: Q01DX009 (ip), vehicle: saline with Tween-80",89 % of control
same,T/C,"endpoint: mean survival time, dose: 50.0 mg/kg/injection, schedule: Q04DX003 (ip), vehicle: saline with Tween-80",101 % of control
same,T/C,[8],93 % of control
same,T/C,[11],101 % of control
same,T/C,[5],98 % of control and 97 % of control
same,T/C,[12],89 % of control
same,T/C,[6],100 % of control
same,T/C,[7],86 % of control
C[Si](C)(C)Oc1cccc(O[Si](C)(C)C)c1,T/C,[11],92 % of control
same,T/C,[12],94 % of control
same,T/C,"endpoint: mean survival time, dose: 400.0 mg/kg/injection, schedule: Q01DX009 (ip), vehicle: saline with Tween-80",87 % of control
CC(/C=C/C=C/c1ccccc1)=N\O,T/C,"endpoint: mean survival time, dose: 100.0 mg/kg/injection, schedule: Q01DX001 (ip), vehicle: Klucel (hydroxypropylcellulose) (HPC)",101 % of control
same,T/C,"endpoint: mean survival time, dose: 200.0 mg/kg/injection, schedule: Q01DX001 (ip), vehicle: Klucel (hydroxypropylcellulose) (HPC)",110 % of control
same,T/C,"endpoint: mean survival time, dose: 400.0 mg/kg/injection, schedule: Q01DX001 (ip), vehicle: Klucel (hydroxypropylcellulose) (HPC)",104 % of control
C1CCc2nnnn2CC1,T/C,"endpoint: mean survival time, dose: 12.5 mg/kg/injection, schedule: Q01DX009 (ip), vehicle: saline",98 % of control
same,T/C,"endpoint: mean survival time, dose: 25.0 mg/kg/injection, schedule: Q01DX009 (ip), vehicle: saline",103 % of control
same,T/C,"endpoint: mean survival time, dose: 50.0 mg/kg/injection, schedule: Q01DX009 (ip), vehicle: saline",95 % of control
O=C1CC2CCC1C2 (stereo not given),T/C,"endpoint: mean survival time, dose: 25.0 mg/kg/injection, schedule: Q04DX003 (ip), vehicle: Klucel (hydroxypropylcellulose) (HPC)",97 % of control
same,T/C,"endpoint: mean survival time, dose: 50.0 mg/kg/injection, schedule: Q04DX003 (ip), vehicle: Klucel (hydroxypropylcellulose) (HPC)",98 % of control
same,T/C,[4],97 % of control
